From patent US5789431A, “Naphthoquinone antitumor compound and method” (The University of North Carolina at Chapel Hill, priority 1996, dated 1998)
Like-named read-outs stand apart in the source and are kept apart here.

Columns and labels:
[1] = tested on: LOX1MVI; assay: in vitro melanoma cell growth inhibition (NCI screen)
[2] = tested on: MALME-3M; assay: as above
[3] = tested on: M14; assay: as above
[4] = tested on: M19-MEL; assay: as above
[5] = tested on: SK-MEL-28; assay: as above
[6] = tested on: SK-MEL-5; assay: as above
[7] = tested on: UACC-257; assay: as above
[8] = tested on: UACC-62; assay: as above
[9] = tested on: CCRF-CEM; assay: in vitro leukemia cell growth inhibition (NCI screen)
[10] = tested on: HL-60(TB); assay: as above
[11] = tested on: K-562; assay: as above
[12] = tested on: SF-268; assay: in vitro CNS cancer cell growth inhibition (NCI screen)
[13] = tested on: SF-539; assay: as above
[14] = tested on: SNB-75; assay: as above
[15] = tested on: XF-498; assay: as above
[16] = tested on: DLD-1; assay: in vitro colon cancer cell growth inhibition (NCI screen)
[17] = tested on: HCT-116; assay: as above
[18] = tested on: HCT-15; assay: as above
[19] = tested on: KM 20L2; assay: as above
[20] = tested on: SW 620; assay: as above
[21] = tested on: 786-0; assay: in vitro renal cancer cell growth inhibition (NCI screen)
[22] = tested on: CAKI-1; assay: as above
[23] = tested on: RXF-393; assay: as above
[24] = tested on: SN12C; assay: as above
[25] = tested on: TK-10; assay: as above
[26] = tested on: UO-31; assay: as above
[27] = tested on: OVCAR-3; assay: in vitro ovarian cancer cell growth inhibition (NCI screen)
[28] = tested on: HOP-18; assay: in vitro non-small cell lung cancer cell growth inhibition (NCI screen)
[29] = tested on: HOP-92; assay: as above
[30] = tested on: NCI-H266; assay: as above
[31] = tested on: NCI-H23; assay: as above
[32] = tested on: LXFL 529; assay: as above
[33] = tested on: MOLT-4; assay: in vitro leukemia cell growth inhibition (NCI screen)
[34] = tested on: RPMI-8226; assay: as above
[35] = tested on: SK-MEL-2; assay: in vitro melanoma cell growth inhibition (NCI screen)
[36] = tested on: SF-295; assay: in vitro CNS cancer cell growth inhibition (NCI screen)
[37] = tested on: OVCAR-4; assay: in vitro ovarian cancer cell growth inhibition (NCI screen); conditions: OVACR-4
[38] = tested on: MCF-7; assay: in vitro breast cancer cell growth inhibition (NCI screen)
[39] = tested on: MDA-N; assay: as above
[40] = tested on: EKVX; assay: in vitro non-small cell lung cancer cell growth inhibition (NCI screen)
[41] = tested on: NCI-H522; assay: as above
[42] = tested on: CCRF-CEM; conditions: human, ccrf-cem cells
[43] = tested on: K-562; conditions: human, k-562 cells
[44] = tested on: MOLT-4; conditions: human, molt-4 cells
[45] = tested on: COLO-205; assay: in vitro colon cancer cell growth inhibition (NCI screen)
[46] = tested on: HT 29; assay: as above
[47] = tested on: MDA-MB-435; assay: in vitro breast cancer cell growth inhibition (NCI screen)
[48] = tested on: T-47D; assay: as above
[49] = tested on: OVCAR-8; assay: in vitro ovarian cancer cell growth inhibition (NCI screen)
[50] = tested on: PC-3; assay: in vitro prostate cancer cell growth inhibition (NCI screen)
[51] = tested on: human tumor cell lines; assay type: cell-based; conditions: Homo sapiens; non-small cell lung, CNS, melanoma, colon, leukemia, small cell lung, and renal cancer cell lines; read-out: logGI50 values (range over cell lines) (converted)
[52] = tested on: SR; assay: in vitro leukemia cell growth inhibition (NCI screen)
[53] = tested on: SNB-78; assay: in vitro CNS cancer cell growth inhibition (NCI screen)
[54] = tested on: U 251; assay: as above
[55] = tested on: NCI-H460; assay: in vitro non-small cell lung cancer cell growth inhibition (NCI screen)

| Structure (SMILES) | cytotoxicity log GI50 [1] [M] | cytotoxicity log GI50 [2] [M] | cytotoxicity log GI50 [3] [M] | cytotoxicity log GI50 [4] [M] | cytotoxicity log GI50 [7] [M] | cytotoxicity log GI50 [8] [M] | cytotoxicity log GI50 [9] [M] | cytotoxicity log GI50 [10] [M] | cytotoxicity log GI50 [11] [M] | cytotoxicity log GI50 [12] [M] | cytotoxicity log GI50 [13] [M] | cytotoxicity log GI50 [14] [M] | cytotoxicity log GI50 [16] [M] | cytotoxicity log GI50 [17] [M] | cytotoxicity log GI50 [18] [M] | cytotoxicity log GI50 [20] [M] | cytotoxicity log GI50 [21] [M] | cytotoxicity log GI50 [27] [M] | cytotoxicity log GI50 [31] [M] | cytotoxicity log GI50 [32] [M] | also measured |
| --- | --- | --- | --- | --- | --- | --- | --- | --- | --- | --- | --- | --- | --- | --- | --- | --- | --- | --- | --- | --- | --- |
| CC(=O)NC1=C(NCC(C)C)C(=O)c2ccccc2C1=O [Compound 31] | -4.81 | -4.72 | -4.74 | -4.73 | -4.73 | -4.74 | -5.14 | -5.56 | -4.81 | -4.69 | -4.76 | -4.77 | -4.72 | -4.69 | -4.75 | -4.68 | -4.84 | -4.78 | -4.70 | -4.79 | cytotoxicity log GI50 [5]: -4.77 M; cytotoxicity log GI50 [6]: -4.70 M; cytotoxicity log GI50 [15]: -4.85 M; cytotoxicity log GI50 [19]: -4.67 M; cytotoxicity log GI50 [22]: -4.78 M; cytotoxicity log GI50 [23]: -4.90 M; cytotoxicity log GI50 [24]: -4.77 M; cytotoxicity log GI50 [25]: -4.68 M; cytotoxicity log GI50 [26]: -4.74 M; cytotoxicity log GI50 [28]: -4.89 M; cytotoxicity log GI50 [29]: -4.85 M; cytotoxicity log GI50 [30]: -4.80 M |
| CC(=O)NC1=C(NC(C)(C)C)C(=O)c2ccccc2C1=O [Compound 32] | -4.78 | – | -4.77 | -4.81 | -4.80 | -4.86 | -5.63 | -5.65 | -5.14 | – | -4.80 | -4.86 | -4.80 | – | -4.76 | -4.85 | -5.47 | -4.81 | – | -4.82 | cytotoxicity log GI50 [33]: -5.19 M; cytotoxicity log GI50 [34]: -4.93 M; cytotoxicity log GI50 [15]: -4.95 M; cytotoxicity log GI50 [22]: -4.79 M; cytotoxicity log GI50 [28]: -4.83 M; cytotoxicity log GI50 [30]: -4.84 M |
| O=C(O)CCCc1nc2c(n1Cc1ccccc1)C(=O)c1ccccc1C2=O [Compound 57] | – | -4.80 | -5.43 | – | -4.60 | -4.76 | -5.28 | -4.54 | – | -4.58 | – | – | – | -4.54 | – | – | – | -4.67 | -4.50 | – | cytotoxicity log GI50 [35]: -4.83 M; cytotoxicity log GI50 [34]: -4.73 M; cytotoxicity log GI50 [36]: -4.59 M; cytotoxicity log GI50 [37]: -4.69 M; cytotoxicity log GI50 [38]: -4.53 M; cytotoxicity log GI50 [39]: -4.65 M; cytotoxicity log GI50 [40]: -4.50 M; cytotoxicity log GI50 [41]: -4.53 M |
| CC(=O)NC1=C(NCCCl)C(=O)c2ccccc2C1=O [Compound 43] | – | -4.86 | -4.89 | – | -4.82 | -4.70 | – | – | – | – | – | -4.61 | – | -4.69 | – | -4.60 | – | – | -4.58 | – | cytotoxicity log GI50 [42]: -4.72 M; cytotoxicity log GI50 [43]: -4.55 M; cytotoxicity log GI50 [44]: -4.60 M; cytotoxicity log GI50 [6]: -4.77 M; cytotoxicity log GI50 [45]: -4.55 M; cytotoxicity log GI50 [46]: -4.58 M; cytotoxicity log GI50 [47]: -4.78 M; cytotoxicity log GI50 [39]: -4.67 M; cytotoxicity log GI50 [48]: -4.60 M; cytotoxicity log GI50 [49]: -4.70 M; cytotoxicity log GI50 [50]: -4.65 M; cytotoxicity log GI50 [41]: -4.69 M |
| Cc1nc2c(n1Cc1ccc(Cl)cc1)C(=O)c1ccccc1C2=O [Compound 20] | -5.69 | – | – | -4.93 | – | -5.47 | -5.33 | -5.36 | -5.69 | -5.29 | -5.60 | – | -5.38 | -5.59 | -5.97 | – | -5.25 | – | – | -5.26 | GI50 [51]: 1 to 10 µM; cytotoxicity log GI50 [33]: -5.50 M; cytotoxicity log GI50 [52]: -5.88 M; cytotoxicity log GI50 [53]: -5.03 M; cytotoxicity log GI50 [54]: -5.46 M; cytotoxicity log GI50 [46]: -5.39 M; cytotoxicity log GI50 [19]: -5.09 M; cytotoxicity log GI50 [49]: -5.05 M; cytotoxicity log GI50 [55]: -5.76 M; cytotoxicity log GI50 [41]: -5.26 M |
